The values below come from the kinase profiling compilation of Christmann-Franck et al. (2016).

SMILES strings stand for the structures.

Common to all, as to experiment: KINOMEscan competition binding
Settings in all cases: compound 10.0 µM

For test [1], the system named is FLT3 (human), P36888 [N841I].
Test [2] deals with EGFR (human), P00533 [746-750 del].
Test [3] relates to ABL1 (human), P00519 [M351T].
For test [4], the system named is EGFR (human), P00533 [G719S].
The test system of test [5] is FLT3 (human), P36888 [ITD].
Test [6] concerns ABL1 (human), P00519 [E255K].
Test [7] relates to KIT (human), P10721 [D816V].
Chain of KIT (human), P10721 [D816V] (P10721 whole entry D816V, looked up): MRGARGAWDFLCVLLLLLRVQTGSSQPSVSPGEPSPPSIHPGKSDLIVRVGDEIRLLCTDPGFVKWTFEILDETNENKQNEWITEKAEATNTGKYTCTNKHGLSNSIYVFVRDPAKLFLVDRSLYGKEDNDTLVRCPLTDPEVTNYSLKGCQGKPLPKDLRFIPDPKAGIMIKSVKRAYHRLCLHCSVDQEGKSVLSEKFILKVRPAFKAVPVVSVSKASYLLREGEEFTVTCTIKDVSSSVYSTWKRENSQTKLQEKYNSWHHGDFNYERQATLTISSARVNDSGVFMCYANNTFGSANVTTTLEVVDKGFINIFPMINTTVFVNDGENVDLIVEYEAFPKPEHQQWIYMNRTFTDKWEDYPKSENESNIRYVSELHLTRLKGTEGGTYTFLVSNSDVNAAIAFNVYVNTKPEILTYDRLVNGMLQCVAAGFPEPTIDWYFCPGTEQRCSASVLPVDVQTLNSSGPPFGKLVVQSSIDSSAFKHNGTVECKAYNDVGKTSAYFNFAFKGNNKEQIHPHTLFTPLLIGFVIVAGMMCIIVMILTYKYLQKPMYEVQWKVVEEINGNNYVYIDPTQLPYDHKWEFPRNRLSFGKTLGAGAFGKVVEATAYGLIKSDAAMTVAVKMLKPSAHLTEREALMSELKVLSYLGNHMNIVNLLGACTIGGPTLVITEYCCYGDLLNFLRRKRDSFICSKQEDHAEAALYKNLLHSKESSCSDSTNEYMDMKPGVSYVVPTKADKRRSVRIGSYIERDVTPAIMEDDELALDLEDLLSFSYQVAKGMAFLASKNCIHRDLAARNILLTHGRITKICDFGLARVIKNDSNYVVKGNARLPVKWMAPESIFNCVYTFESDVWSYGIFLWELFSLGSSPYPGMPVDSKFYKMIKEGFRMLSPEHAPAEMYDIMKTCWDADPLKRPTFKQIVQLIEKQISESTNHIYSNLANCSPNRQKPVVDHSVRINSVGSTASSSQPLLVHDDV
In test [8] the test system is ABL1 (human), P00519 [T315I].
Test [9] has as its system EGFR (human), P00533 [P753S; 747-752 del].
Test [10] relates to EIF2AK4 KD2 (human), Q9P2K8 [S808G].
Chain of EIF2AK4 KD2 (human), Q9P2K8 [S808G] (Q9P2K8 whole entry S808G, looked up): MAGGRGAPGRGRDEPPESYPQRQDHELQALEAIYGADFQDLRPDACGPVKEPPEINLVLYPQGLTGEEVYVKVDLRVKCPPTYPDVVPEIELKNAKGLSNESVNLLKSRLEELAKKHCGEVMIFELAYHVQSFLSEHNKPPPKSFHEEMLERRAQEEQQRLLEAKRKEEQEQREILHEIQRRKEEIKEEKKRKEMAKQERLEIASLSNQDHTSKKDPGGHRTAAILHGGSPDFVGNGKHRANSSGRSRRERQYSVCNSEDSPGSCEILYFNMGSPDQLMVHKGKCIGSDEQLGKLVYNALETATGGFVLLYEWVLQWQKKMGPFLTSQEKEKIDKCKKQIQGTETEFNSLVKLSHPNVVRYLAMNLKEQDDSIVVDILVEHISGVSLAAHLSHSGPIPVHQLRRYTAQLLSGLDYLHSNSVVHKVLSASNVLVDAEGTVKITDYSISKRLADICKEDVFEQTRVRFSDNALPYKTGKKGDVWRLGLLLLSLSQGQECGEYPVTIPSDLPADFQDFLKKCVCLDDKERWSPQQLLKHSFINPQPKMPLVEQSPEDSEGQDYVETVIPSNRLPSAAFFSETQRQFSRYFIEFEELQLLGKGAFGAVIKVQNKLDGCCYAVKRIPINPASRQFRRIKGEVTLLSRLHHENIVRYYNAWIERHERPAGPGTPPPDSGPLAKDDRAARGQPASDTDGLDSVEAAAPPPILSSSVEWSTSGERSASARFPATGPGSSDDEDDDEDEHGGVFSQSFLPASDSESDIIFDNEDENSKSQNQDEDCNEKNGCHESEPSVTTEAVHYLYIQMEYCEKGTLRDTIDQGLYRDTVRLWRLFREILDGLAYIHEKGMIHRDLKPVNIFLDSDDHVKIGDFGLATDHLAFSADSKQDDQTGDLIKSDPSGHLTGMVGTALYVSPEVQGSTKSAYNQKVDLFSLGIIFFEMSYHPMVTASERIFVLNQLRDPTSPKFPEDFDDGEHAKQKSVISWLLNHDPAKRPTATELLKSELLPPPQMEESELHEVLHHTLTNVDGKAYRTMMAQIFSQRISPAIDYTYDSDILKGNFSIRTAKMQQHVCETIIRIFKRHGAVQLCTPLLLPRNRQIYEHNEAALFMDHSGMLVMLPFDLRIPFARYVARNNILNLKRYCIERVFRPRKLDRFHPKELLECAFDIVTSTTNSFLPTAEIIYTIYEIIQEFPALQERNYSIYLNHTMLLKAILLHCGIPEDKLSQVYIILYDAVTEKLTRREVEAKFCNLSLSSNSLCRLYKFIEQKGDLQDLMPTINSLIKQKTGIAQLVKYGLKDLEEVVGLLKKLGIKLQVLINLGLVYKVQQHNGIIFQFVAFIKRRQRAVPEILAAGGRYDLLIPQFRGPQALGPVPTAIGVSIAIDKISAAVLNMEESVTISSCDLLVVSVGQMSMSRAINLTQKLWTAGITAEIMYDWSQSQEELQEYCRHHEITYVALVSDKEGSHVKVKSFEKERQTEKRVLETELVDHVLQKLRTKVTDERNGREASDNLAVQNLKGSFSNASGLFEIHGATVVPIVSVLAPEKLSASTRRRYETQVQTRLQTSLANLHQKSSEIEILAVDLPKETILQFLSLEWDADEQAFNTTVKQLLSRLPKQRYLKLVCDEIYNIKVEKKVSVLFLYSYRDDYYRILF
For test [11], the system named is ABL1 (human), P00519 [Q252H].
The test system of test [12] is KIT (human), P10721 [V559D/T670I].
Chain of KIT (human), P10721 [V559D/T670I] (P10721 whole entry V559D/T670I, looked up): as the sequence (P10721 whole entry D816V, looked up) above, with V559D, T670I, V816D counted along it
Test [13] has as its system FLT3 (human), P36888 [K663Q].
Test [14] relates to KIT (human), P10721 [V559D].
Chain of KIT (human), P10721 [V559D] (P10721 whole entry V559D, looked up): as the sequence (P10721 whole entry D816V, looked up) above, with V559D, V816D counted along it
Test [15] has as its system PIK3CA (human), P42336 [E545K].
The subject of test [16] is EGFR (human), P00533 [L861Q].
For test [17], the system named is PIK3CA (human), P42336 [I800L].
Chain of PIK3CA (human), P42336 [I800L] (P42336 whole entry I800L, looked up): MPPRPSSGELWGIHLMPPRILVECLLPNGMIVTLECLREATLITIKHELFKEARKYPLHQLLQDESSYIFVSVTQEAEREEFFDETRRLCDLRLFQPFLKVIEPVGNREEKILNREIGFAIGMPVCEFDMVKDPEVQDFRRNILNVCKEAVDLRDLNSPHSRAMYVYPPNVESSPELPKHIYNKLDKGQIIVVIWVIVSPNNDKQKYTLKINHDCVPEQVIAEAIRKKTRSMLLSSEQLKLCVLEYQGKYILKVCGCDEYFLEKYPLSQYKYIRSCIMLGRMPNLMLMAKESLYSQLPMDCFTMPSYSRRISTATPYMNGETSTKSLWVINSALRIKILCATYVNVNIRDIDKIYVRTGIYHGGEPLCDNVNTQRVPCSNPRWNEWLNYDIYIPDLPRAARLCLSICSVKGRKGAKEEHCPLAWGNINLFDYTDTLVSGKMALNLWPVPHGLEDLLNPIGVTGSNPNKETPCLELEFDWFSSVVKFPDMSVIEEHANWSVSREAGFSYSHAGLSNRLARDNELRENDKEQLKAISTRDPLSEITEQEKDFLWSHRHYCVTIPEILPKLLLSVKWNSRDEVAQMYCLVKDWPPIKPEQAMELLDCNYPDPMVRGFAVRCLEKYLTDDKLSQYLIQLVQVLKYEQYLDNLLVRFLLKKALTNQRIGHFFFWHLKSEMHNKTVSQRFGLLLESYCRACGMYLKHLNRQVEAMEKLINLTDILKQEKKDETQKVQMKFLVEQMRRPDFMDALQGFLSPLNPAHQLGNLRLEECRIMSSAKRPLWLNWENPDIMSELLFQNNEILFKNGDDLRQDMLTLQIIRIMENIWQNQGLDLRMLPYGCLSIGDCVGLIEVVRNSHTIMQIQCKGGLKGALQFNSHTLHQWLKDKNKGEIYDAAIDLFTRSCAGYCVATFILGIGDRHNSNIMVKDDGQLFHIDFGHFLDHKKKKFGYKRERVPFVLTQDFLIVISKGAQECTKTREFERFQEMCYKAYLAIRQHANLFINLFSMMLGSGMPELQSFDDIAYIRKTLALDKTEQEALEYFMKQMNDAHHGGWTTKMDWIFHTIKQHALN
Test [18] has as its system PIK3CA (human), P42336 [E545A].
Test [19] relates to PIK3CA (human), P42336 [C420R].
Chain of PIK3CA (human), P42336 [C420R] (P42336 whole entry C420R, looked up): as the sequence (P42336 whole entry I800L, looked up) above, with C420R, L800I counted along it
Test [20] concerns PIK3CA (human), P42336 [Q546K].
Chain of PIK3CA (human), P42336 [Q546K] (P42336 whole entry Q546K, looked up): as the sequence (P42336 whole entry I800L, looked up) above, with Q546K, L800I counted along it
Test [21] has as its system PIK3CA (human), P42336 [H1047Y].

Chain of PIK3CA (human), P42336 [E545A] (P42336 whole entry E545A, looked up): as the sequence (P42336 whole entry I800L, looked up) above, with E545A, L800I counted along it
Chain of PIK3CA (human), P42336 [H1047Y] (P42336 whole entry H1047Y, looked up): as the sequence (P42336 whole entry I800L, looked up) above, with L800I, H1047Y counted along it
Chain of PIK3CA (human), P42336 [E545K] (P42336 whole entry E545K, looked up): as the sequence (P42336 whole entry I800L, looked up) above, with E545K, L800I counted along it

Turning to `COc1cc(C)c(Sc2cnc(NC(=O)c3ccc(CNC(C)C(C)C)cc3)s2)cc1C(=O)N1CCN(C(C)=O)CC1` (stereo not given), the kinase still bound, per cent of control amounted to 16% in test [1]; 100% in test [2]; 100% in test [3]; 100% in test [4]; 100% in test [5]; 100% in test [6]. The kinase still bound, per cent of control in test [7] amounted to 100%; in test [8], 19%; in test [9], 100%; in [10], 100%; in test [11], 100%; in test [12], 100%. The kinase still bound, per cent of control in test [13], in [14], in test [15] and in test [16] was 100% each time.

On to `Cc1n[nH]c2ccc(-c3cncc(OC[C@@H](N)Cc4c[nH]c5ccccc45)c3)cc12`, for which the kinase still bound, per cent of control came to 0.1% in test [1]; 100% in test [3]; 0.1% in [5]; 100% in test [6]; 1.1% in test [7]; 100% in [8]. The kinase still bound, per cent of control in test [10] amounted to 100%; in [11], 100%; in test [12], 100%; in test [13] it was 3.8%; in [14], 100%; in [15] it was 100%.

Take `COc1ccc(N(C(=O)Oc2cc(C(=O)Nc3cccc(C(F)(F)F)c3)ccc2C)c2ccnc(Nc3ccc(N4CCN(C)CC4)cc3)n2)c(OC)c1`: the kinase still bound, per cent of control in test [1] came to 29%; in [2], 6.1%; in test [3], 1.4%; in test [4], 18%; in test [5], 100%; in [6], 7.2%. Also, the kinase still bound, per cent of control in [7] turned out to be 0.75%; in test [8] it was 0.45%; in test [9], 2.5%; in test [10], 100%; in test [11] it was 1.8%; in test [12], 3.8%. For the same molecule, the figures for the kinase still bound, per cent of control in test [14], in [15] and in test [16] were 0.5%, 100% and 1%, respectively.

`CC1=C(C(=O)Nc2cc3cn[nH]c3cc2F)C(c2ccc(C(F)(F)F)cc2)CC(=O)N1` (stereo not given): the kinase still bound, per cent of control stood at 75% in test [1]; 96% in test [2]; 100% in test [17]; 82% in test [3]; 57% in test [4]; 38% in [18]. Moreover, the kinase still bound, per cent of control in test [5] was 83%; in test [6], 77%; in test [7] it was 49%; in [19], 63%; in test [9], 100%; in test [10] it was 100%. The kinase still bound, per cent of control in test [12] stood at 88%; in [13], 78%; in test [14], 82%; in test [20], 32%; in test [15], 100%; in test [21], 43%. Also, the kinase still bound, per cent of control in test [16] was found to be 91%.

Turning to `CCCS(=O)(=O)Nc1ccc(F)c(C(=O)c2c[nH]c3ncc(Cl)cc23)c1F`, the kinase still bound, per cent of control in [1] worked out at 28%; in test [2], 93%; in test [17] it was 91%; in test [3], 46%; in test [4], 72%; in [18], 92%. Besides, the kinase still bound, per cent of control came out at 68% in test [5]; 46% in test [6]; 49% in test [7]; 100% in [19]; 85% in test [9]; 0.95% in test [10]. Moreover, the kinase still bound, per cent of control in [12] stood at 46%; in [13], 17%; in [14], 0.05%; in test [20], 86%; in test [15] it was 100%; in test [21], 90%. The same molecule displayed a kinase still bound, per cent of control in test [16] of 34%.

For the molecule `COc1cc2ncnc(Nc3cccc(Cl)c3)c2cc1OC`, the kinase still bound, per cent of control in test [1] was 7.2%; in [2] it was 3.3%; in test [17], 46%; in [3], 1.4%; in test [4], 0.9%; in test [18], 98%. Besides, the kinase still bound, per cent of control in test [5] came out at 24%; in test [6], 6.6%; in test [7], 38%; in test [19], 60%; in [9] it was 1.4%; in test [10] it was 56%. Further, the kinase still bound, per cent of control in [12] is 49%; in test [13] it was 35%; in test [14], 16%; in test [20], 82%; in test [15], 71%; in test [21], 95%. Also, the kinase still bound, per cent of control in test [16] was 0.1%.

For the molecule `CN(C)C/C=C/C(=O)Nc1ccc(C(=O)Nc2cccc(Nc3nccc(-c4cccnc4)n3)c2)cc1`, the kinase still bound, per cent of control stood at 31% in test [1]; 100% in [2]; 60% in test [17]; 29% in [3]; 97% in test [4]; 100% in [18]. In addition, the kinase still bound, per cent of control in test [5] was 30%; in [6] it was 29%; in [7], 30%; in test [19] it was 100%; in test [9] it was 96%; in test [10], 97%. Further, the kinase still bound, per cent of control in test [12] is 10%; in [13] it was 34%; in test [14] it was 0.5%; in [20], 100%; in [15], 100%; in [21] it was 100%. Moreover, the kinase still bound, per cent of control in test [16] was found to be 56%.

Consider `CCN(CC)CCCCNc1ncc2cc(-c3cc(OC)cc(OC)c3)c(NC(=O)NC(C)(C)C)nc2n1`, for which the kinase still bound, per cent of control in test [1], in test [3], in test [5], in test [6], in test [7] and in test [8] was 100% throughout. In addition, the kinase still bound, per cent of control in test [10], in test [11], in [12], in test [14] and in test [15] was 100% throughout.
